Test results as given in publication PMC11079024, “Identification of a family of species-selective complex I inhibitors as potential anthelmintics” (Nature Communications, 2024).
Read-outs that look alike come from different tables or passages of the source.

Legend:
[1] = tested on: L1 wild-type C. elegans
[2] = in vitro; settings: human; for viability at 2 days, 3.13 µM / viability at 2 days, 6.25 µM / viability at 2 days, 12.5 µM / viability at 2 days, 25 µM / viability at 2 days, 50 µM / viability at 2 days, 100 µM: HEK293 cells (Flp-In-293)
[3] = tested on: ben-1 mutant (ECA882) C. elegans; assay: microbe, parasite or virus in culture; settings: Caenorhabditis elegans; for viability at 1 µM / viability at 2 µM / viability at 3.9 µM / viability at 15.6 µM / viability at 31.3 µM / viability at 62.5 µM / viability at 125 µM / viability at 250 µM / viability at 500 µM / viability at 1000 µM: read-out: C. elegans ben-1(e1880) development/viability
Outline: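 Development and viability scored from single well images as total worm pixels divided by the matching DMSO control value, mean of ≥3 replicates. Worms added as synchronized L1s to HB101 suspension in liquid NGM with compound (1% DMSO v/v), grown 6 days at 20 °C with shaking.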

[4] = tested on: L1 wild-type C. elegans; assay: microbe, parasite or virus in culture; settings: Caenorhabditis elegans, read-out: C. elegans KCN Survival Assay LC50, estimated from fitted dose-response curves; mean of at least two biological replicates
[5] = 50 μM, hit = relative motility below 0.25 3 hours after removal of KCN
[6] = Dose 0.2 µM, mean of at least three biological replicates
[7] = read-out: C. elegans (ben-1) Development & Viability Assay LC50
[8] = read-out: C. elegans ben-1 log10 LC50 (converted)
[9] = 50 μM, KCN survival assay, hit = relative motility below 0.25
[10] = HEK293 Cell Viability Assay LC50, HEK293 cells, estimated from fitted dose-response curves, mean of at least two biological replicates
[11] = 50 μM compound, hit = relative motility below 0.25 3 hours after removal of KCN
[12] = HEK293 Cell Viability Assay LC50, HEK293 cells, estimated from fitted dose-response curves

| Structure (SMILES) | Screen "Hit" [1, 5] | C. elegans KCN Survival [1, 6] | C. elegans KCN Survival ([1]; Dose 0.39 µM) | C. elegans KCN Survival ([1]; Dose 1.56 µM) | C. elegans KCN Survival ([1]; Dose 3.13 µM) | C. elegans KCN Survival ([1]; Dose 6.25 µM) | C. elegans KCN Survival ([1]; Dose 12.5 µM) | C. elegans KCN Survival ([1]; Dose 25 µM) | C. elegans KCN Survival ([1]; Dose 50 µM) | C. elegans KCN Survival ([1]; Dose 100 µM) | viability at 2 days, 3.13 µM ([2]; HEK293 viability) [%] | viability at 2 days, 6.25 µM ([2]; HEK293 viability, Dose 6.25 µM) [%] | viability at 2 days, 12.5 µM ([2]; HEK293 viability) [%] | viability at 2 days, 25 µM ([2]; HEK293 viability) [%] | viability at 2 days, 50 µM ([2]; HEK293 viability) [%] | viability at 2 days, 100 µM ([2]; HEK293 viability) [%] | LC50 [3, 7] [µM] | viability at 1 µM [3] [%] | LC50 [3, 8] [µM] | LC50 [4] [µM] | also measured |
| --- | --- | --- | --- | --- | --- | --- | --- | --- | --- | --- | --- | --- | --- | --- | --- | --- | --- | --- | --- | --- | --- |
| Cc1cccc(OCCn2c(C)nc3ccccc32)c1 [Compound 6285199] | Y (hits were identified as compounds that reduced relative motility below 0.25 (75% reduction)) | 1.002 | 1.011 | 0.994 | 1.093 | 0.980 | 0.810 | 0.165 | 0.143 | 0.167 | 100 | 100 | 100 | 100 | 98.3 | 46.5 | 205 | 99.9 | 205 | 14.7 | CC50 at 2 days [2]: 97.7 µM; viability at 2 µM [3]: 91.6%; viability at 3.9 µM [3]: 97.6%; viability at 15.6 µM [3]: 95.5%; viability at 31.3 µM [3]: 93.8%; viability at 62.5 µM [3]: 97.6%; viability at 125 µM [3]: 100%; viability at 250 µM [3]: 64.8% |
| CCCOc1ccc(Cn2cnc3ccccc32)cc1 [Compound 7355741] | – | 0.923 | 0.831 | 0.783 | 1.007 | 0.620 | 0.122 | 0.000 | 0.000 | 0.000 | 99.8 | 100 | 100 | 100 | 78.9 | 30.3 | 85.3 | – | 85.3 | 7 | Screen "Hit" [1, 9]: Y (hits were identified as compounds that reduced relative motility below 0.25 (75% reduction)); CC50 at 2 days [2, 10]: 76.2 µM |
| Cc1nc2ccccc2n1Cc1ccc(C(C)C)cc1 [Compound 7353551] | – | – | – | – | – | – | – | – | – | – | – | – | – | – | – | – | 91.5 | – | 91.6 | 7 | Screen "Hit" [1, 11]: Y (hits were identified as compounds that reduced relative motility below 0.25 (75% reduction)); CC50 at 2 days [2, 10]: 46.2 µM |
| Clc1ccc(OCCn2cnc3ccccc32)c(Cl)c1 [Compound 7221649] | Y (hits were identified as compounds that reduced relative motility below 0.25 (75% reduction)) | 0.959 | 0.956 | 1.007 | 1.008 | 0.946 | 0.599 | 0.152 | 0.156 | 0.254 | 100 | 100 | 100 | 100 | 61.2 | 7.3 | 37.2 | 86.6 | 37.2 | 13 | CC50 at 2 days [2, 12]: 55.3 µM; viability at 2 µM [3]: 85.6%; viability at 3.9 µM [3]: 87.8%; viability at 15.6 µM [3]: 91.2%; viability at 31.3 µM [3]: 64.6%; viability at 62.5 µM [3]: 3.9%; viability at 125 µM [3]: 37.3% |
| Cc1nc2ccccc2n1CCOc1ccccc1 [Compound 5550112] | Y (hits were identified as compounds that reduced relative motility below 0.25 (75% reduction)) | 0.995 | 1.044 | 1.038 | 1.021 | 1.008 | 0.918 | 0.699 | 0.269 | 0.187 | 100 | 98.3 | 99.1 | 100 | 100 | 100 | > 1000 | 99.2 | > 500 | 32.9 | CC50 at 2 days [2, 12]: > 100 µM; viability at 2 µM [3]: 100%; viability at 3.9 µM [3]: 96.9%; viability at 15.6 µM [3]: 97.1%; viability at 31.3 µM [3]: 92.9%; viability at 62.5 µM [3]: 100%; viability at 125 µM [3]: 93.6%; viability at 250 µM [3]: 86.4%; viability at 500 µM [3]: 91.2%; viability at 1000 µM [3]: 92.4%; LC50 ([3]; read-out: C. elegans ben-1 LC50): > 500 µM |
| Clc1ccc(Cn2cnc3ccccc32)cc1Cl [Compound 5571325] | – | 1.000 | 0.996 | 1.008 | 0.957 | 0.819 | 0.586 | 0.133 | 0.122 | 0.206 | 73.5 | 52.9 | 49.8 | 60.7 | 57.7 | 16.3 | 69.5 | – | 69.5 | 13.1 | Screen "Hit" [1, 9]: Y (hits were identified as compounds that reduced relative motility below 0.25 (75% reduction)); CC50 at 2 days [2, 12]: 86.4 µM |
| CC(C)Cc1ccc(C(C)c2nc3ccccc3n2C(C)C)cc1 (centres unmarked) [STK951903] | – | – | – | – | – | – | – | – | – | – | – | – | – | – | – | – | 731 | – | 731 | 25.1 | Screen "Hit" [1, 11]: Y (hits were identified as compounds that reduced relative motility below 0.25 (75% reduction)); CC50 at 2 days [2, 12]: 29.2 µM |
| Clc1ccc(Cn2cnc3ccccc32)c(Cl)c1 [Compound 6750659] | – | 0.888 | 0.896 | 0.908 | 0.544 | 0.267 | 0.023 | 0.000 | 0.000 | 0.000 | 95.5 | 100 | 100 | 100 | 76 | 19.4 | 42.2 | – | 42.3 | 4.28 | Screen "Hit" [1, 9]: Y (hits were identified as compounds that reduced relative motility below 0.25 (75% reduction)); CC50 at 2 days [2, 10]: 72.7 µM |
| Nc1nc2ccccc2n1Cc1ccc(Br)cc1 [Compound 7313068] | – | – | – | – | – | – | – | – | – | – | – | – | – | – | – | – | 63.1 | – | 63.1 | 14.9 | Screen "Hit" [1, 9]: Y (hits were identified as compounds that reduced relative motility below 0.25 (75% reduction)); CC50 at 2 days [2, 10]: 41.7 µM |
| Cc1ccccc1OCCCn1c(C)nc2ccccc21 [Compound 7916923] | Y (hits were identified as compounds that reduced relative motility below 0.25 (75% reduction)) | 0.930 | 1.083 | 1.052 | 0.985 | 0.888 | 0.491 | 0.124 | 0.136 | 0.168 | 84.6 | – | 95.2 | 73.1 | 41.6 | 9.6 | 142 | 95.8 | 143 | 12.1 | CC50 at 2 days [2]: 45.5 µM; viability ([2]; HEK293 viability, Dose 6.25 µM): 94.9%; viability at 2 µM [3]: 94.9%; viability at 3.9 µM [3]: 93.4%; viability at 15.6 µM [3]: 96%; viability at 31.3 µM [3]: 89.5%; viability at 62.5 µM [3]: 86.2%; viability at 125 µM [3]: 67.3%; viability at 250 µM [3]: 2.7%; viability at 500 µM [3]: 2.9%; viability at 1000 µM [3]: 2.3% |
